Test system: VSV-eGFP-SARS-CoV-2
Assay type: cell-based, VSV-SARS-CoV-2 chimeric virus

## Heparin sodium salt
  half-maximal inhibitory concentration (IC50), infected (GFP+) cells: 0.03 µg/mL
